Results published in US20050053631A1, “Method of decreasing sebum production” (Unilever Home & Personal Care USA, Division of Conopco, Inc., priority 2003, published 2005).

System: sebocytes
Experiment: In Vitro Sebocyte Lipogenesis Assay (14-C acetate incorporation into lipids of cultured sebocytes)
Type: cell-based
Settings: cultured human sebocytes; for % decrease in lipid syn.: 24 h, relative to vehicle control
Protocol: In Vitro Sebocyte Lipogenesis Assay
Human sebaceous glands were isolated from the nose of a person and cultured using submerged tissue culture techniques (Bajor et al, J. Invest. Dermatol., 102:1994, p. 564). These sebocytes accumulate intracellular lipid droplets characteristic of mature human sebum.
Harvested and passaged sebocytes were added to each well of a 96 well tissue culture plate and incubated at 37° C. in-the presence of 7.5% CO2 for 10 days. The growth medium was changed three times per week. On the day of experimentation, the growth medium was removed and the sebocytes washed three times with phosphate buffered saline (PBS). Fresh phenol-free sebocyte growth media in 0.2 ml amount containing various concentrations of active agent speculated to inhibit lipogenesis was added to each well. Triplicate wells were utilized for each sample. […] The cultures were incubated at 37° C./7.5% CO2 for 24 hours. Radioactive label was prepared by adding 100 μl (micro-liters) of 14-C labelled acetic acid (Amersham, sodium salt, specific activity of 56 mCi/mmol) to 10 ml of 50 mM sodium acetate buffer. Then 50 μl was added to each well containing the sebocytes and active agents. The cultures were returned to the incubator for 4 hours. Thereafter the treatments and label were removed and the sebocytes rinsed three times with fresh PBS. Samples containing the 14-C label were extracted and the label counted using a Beckman scintillation counter. Triplicates were performed for each sample.
For each 96 well tissue culture plate, 20 samples could be analyzed. Of these, 1 sample was reserved for media, 1 sample for DMSO or ethanol, and 1 sample for phenol red leaving 17 remaining samples.

Row | Compound | activity in reducing lipid synthesis in sebocytes (in words) | % decrease in lipid syn. (20 uM) | % decrease in lipid syn. (40 uM) | % decrease in lipid syn. (100 uM) | % decrease in lipid syn. (10 uM) | further results
1 | C=C1CCC(=O)O1 [γ-methylene γ-butyrolactone] | ineffective | – | – | – | – | –
2 | Oc1cc(Cl)ccc1Oc1ccc(Cl)cc1Cl [Triclosan] | significant activity | 48.8% | 90% | 97.2% | – | –
3 | C=C1CCOC1=O [α-methylene-γ-butyrolactone] | significant activity | 13.2% | – | 53.3% | 1.3% | % decrease in lipid syn. (500 uM): 100%
4 | C=C/C(C)=C/[C@@]1(C)SC(=O)C(C)=C1O [Thiolactomycin] | not to inhibit | – | – | – | – | –
5 | O=C(OC1Cc2c(O)cc(O)cc2OC1c1cc(O)c(O)c(O)c1)c1cc(O)c(O)c(O)c1 (single isomer, unassigned; (-)) [EGCG, (−)-epigallocatechin gallate] | significant activity | – | 13.4% | – | – | % decrease in lipid syn. (8 uM): 8.9%; % decrease in lipid syn. (200 uM): 29.5%; % decrease in lipid syn. (1000 uM): 90%
6 | [2R,3S]-2,3-epoxy4-oxo-7,10-trans, trans-dodecanoic acid amide [Cerulenin] | significant activity | – | 99.0% | – | 96.5% | % decrease in lipid syn. (1.6 uM): 13.6%; % decrease in lipid syn. (5 uM): 52.0%; % decrease in lipid syn. (concentration not printed (between 40 uM and 10 uM in the list)): 96.5%
